Test results published in ChEMBL document CHEMBL5352381, “Design and development of a novel series of oral bivalent BET inhibitors with potent anticancer activities” (Eur J Med Chem, 2022).
Active and inactive are the calls of the source. The rule behind the calls is not given here.

Experiments:
[1] = Observed MRT infinity in CD-1 mouse at 10 mg/kg, po; type: ADME, organism-based; details: in vivo
[2] = Cmax in CD-1 mouse at 10 mg/kg, po; type: ADME, organism-based; set-up: dose 10 mg/kg, route po; details: in vivo
[3] = Half life in CD-1 mouse at 10 mg/kg, po; type: ADME, organism-based; details: in vivo
[4] = system: MM1.S; assay: Antitumor activity against human MM1.S cells xenografted in BALB/c nude mouse assessed growth inhibition treated at 3 mg/kg, po qd for 10 days followed by dose adjustment to 1.5 mg/kg from day 11 to 21 due to body weight loss relative to control; type: functional; details: dose 1.5-3 mg/kg, time 21 day, at 1.5 to 3 mg/kg
[5] = Observed AUC infinity in CD-1 mouse at 10 mg/kg, po; type: ADME, organism-based; set-up: dose 10 mg/kg, route po; details: in vivo
[6] = Tmax in CD-1 mouse at 10 mg/kg, po; type: ADME, organism-based; details: in vivo
[7] = AUClast in CD-1 mouse at 10 mg/kg, po; type: ADME, organism-based; set-up: dose 10 mg/kg, route po; details: in vivo
[8] = Toxicity in BALB/c mouse xenografted with human MM1.S assessed body weight loss treated at 3 mg/kg, po qd for 10 days; type: organism-based; details: in vivo, 240 h, time 10 day
[9] = Metabolic stability in dog liver microsomes assessed as half life; type: ADME, Canis lupus familiaris, Microsome
[10] = Metabolic stability in mouse liver microsomes assessed as clearance; type: ADME, Microsome; details: read-out: CLH
[11] = Metabolic stability in mouse liver microsomes assessed as half life; type: ADME, Microsome
[12] = Metabolic stability in human liver microsomes assessed as clearance; type: ADME, Microsome; details: read-out: CLH
[13] = system: Ty-82; assay: Antiproliferative activity against human Ty-82 cells incubated for 72 hrs by sulforhodamine B based cell counting kit-8 assay; type: functional; details: TY82, 72 h
[14] = Metabolic stability in dog liver microsomes assessed as clearance; type: ADME, Canis lupus familiaris, Microsome; details: read-out: CLH
[15] = system: MM1.S; assay: Antiproliferative activity against human MM1.S cells incubated for 72 hrs by sulforhodamine B based cell counting kit-8 assay; type: functional
[16] = Toxicity in BALB/c mouse xenografted with human Ty-82 assessed as death treated at 0.25 to 0.5 mg/kg, po qd for 21 days; type: organism-based; details: in vivo, 504 h, dose 0.25-0.5 mg/kg, time 21 day
[17] = Metabolic stability in human liver microsomes assessed as half life; type: ADME, Microsome
[18] = system: Ty-82; assay: Antitumor activity against human Ty-82 cells xenografted in BALB/c nude mouse assessed tumor growth inhibition treated at 0.5 mg/kg, po qd for 21 days relative to control; type: functional; details: TY82, 504 h, time 21 day, read-out: TGI
[19] = Toxicity in BALB/c mouse xenografted with human Ty-82 assessed as body weight loss treated at 0.25 to 0.5 mg/kg, po qd for 21 days; type: organism-based; details: in vivo, 504 h, dose 0.25-0.5 mg/kg, time 21 day
[20] = target: Bromodomain-containing protein 4 (Homo sapiens, UniProt O60885); assay: Inhibition of full length BRD4 (unknown origin) transfected in HEK293 cells incubated for 20 hrs measured by NanoBRET BRD4/Histone H3.3 interaction assay kit; type: cell-based
[21] = system: MV4-11; assay: Antiproliferative activity against human MV4-11 cells; type: functional, cell-based
[22] = system: CAPAN-1; assay: Induction of apoptosis in human CAPAN-1 cells for 48 hrs by annexin V-FITC based flow cytometric analysis; type: functional, cell-based; details: dose 0.1-10 nM
[23] = system: CAPAN-1; assay: Induction of apoptosis in human CAPAN-1 cells assessed as increased cleaved PARP at 0.1 to 10 nM for 48 hrs […]; type: functional, cell-based; details: dose 0.1-10 nM
[24] = system: Ty-82; assay: Induction of apoptosis in human Ty-82 cells assessed as increase in cleaved PARP at 0.1 to 10 nM for 48 hrs […]; type: functional, cell-based; details: dose 0.1-10 nM
[25] = system: Ty-82; assay: Induction of apoptosis in human Ty-82 cells for 48 hrs by annexin V-FITC based flow cytometric analysis; type: functional, cell-based; details: dose 0.1-10 nM
[26] = system: Ty-82; assay: Induction of apoptosis in human Ty-82 cells assessed as increase in caspase 9 at 0.1 to 10 nM for 48 hrs […]; type: functional, cell-based; details: dose 0.1-10 nM
[27] = system: CAPAN-1; assay: Induction of apoptosis in human CAPAN-1 cells assessed as increase in caspase 3 at 0.1 to 10 nM for 48 hrs […]; type: functional, cell-based; details: dose 0.1-10 nM
[28] = system: CAPAN-1; assay: Induction of apoptosis in human CAPAN-1 cells assessed as increase in caspase 7 at 0.1 to 10 nM for 48 hrs […]; type: functional, cell-based; details: dose 0.1-10 nM
[29] = system: Ty-82; assay: Induction of apoptosis in human Ty-82 cells assessed as reduction of IDO1 mRNA level at 0.1 to 10 nM for 24 hrs by […]; type: functional, cell-based; details: dose 0.1-10 nM
[30] = system: CAPAN-1; assay: Induction of apoptosis in human CAPAN-1 cells assessed as increase in caspase 9 at 0.1 to 10 nM for 48 hrs […]; type: functional, cell-based; details: dose 0.1-10 nM
[31] = system: Ty-82; assay: Induction of apoptosis in human Ty-82 cells assessed as increase in caspase 7 at 0.1 to 10 nM for 48 hrs […]; type: functional, cell-based; details: dose 0.1-10 nM
[32] = system: Ty-82; assay: Induction of apoptosis in human Ty-82 cells assessed as increase in caspase 3 at 0.1 to 10 nM for 48 hrs […]; type: functional, cell-based; details: dose 0.1-10 nM
[33] = system: Ty-82; assay: Induction of apoptosis in human Ty-82 cells assessed as reduction of c-Myc mRNA level at 0.1 to 10 nM for 24 hrs by […]; type: functional, cell-based; details: dose 0.1-10 nM
[34] = system: MV4-11; assay: Antitumor activity against human MV4-11 cells xenografted in BALB/c mouse assessed as growth inhibition at 0.6 mg/kg, po qd 21 days relative to control; type: functional; details: MV4-11, 504 h, time 21 day, read-out: GI
[35] = Toxicity in BALB/c mouse xenografted with human MV4-11 cells assessed as body weight loss at 0.6 mg/kg, po qd 21 days; type: organism-based; details: in vivo, 504 h, time 21 day
[36] = system: MM1.S; assay: Antitumor activity against human MM1.S cells xenografted in BALB/c nude mouse assessed growth inhibition treated at 1.5 mg/kg, po qd for 10 days adjusted to qod from day 11 to 21 due to body weight loss relative to control; type: functional; details: 504 h, time 21 day, read-out: GI
[37] = Toxicity in BALB/c mouse xenografted with human MM1.S assessed body weight loss treated at 1.5 mg/kg, po qd for 10 days; type: organism-based; details: in vivo, 240 h, time 10 day
[38] = system: MM1.S; assay: Antitumor activity against human MM1.S cells xenografted in BALB/c nude mouse assessed growth inhibition treated at 0.5 mg/kg, po qd for 21 days relative to control; type: functional; details: 504 h, time 21 day, read-out: GI

| SMILES | MRT [1] | Cmax [2] | half-life [3] | AUC(0-inf) [5] | Tmax [6] | AUC(0-t) [7] | half-life [9] | microsomal CLint [10] | half-life [11] | microsomal CLint [12] | IC50 [13] | microsomal CLint [14] | IC50 [15] | Activity [16] | half-life [17] | inhibition in vivo at 0.5 mg/kg [18] | Activity [19] | also measured |
| --- | --- | --- | --- | --- | --- | --- | --- | --- | --- | --- | --- | --- | --- | --- | --- | --- | --- | --- |
| Cc1ccc(-n2nc(C(=O)N3CCN(C(=O)c4nc(-c5ccc6c(c5)N(C5CCCC5)[C@H](C)C(=O)N6C)n(-c5ccc(C)cc5)n4)[C@H](C)C3)nc2-c2ccc3c(c2)N(C2CCCC2)[C@H](C)C(=O)N3C)cc1 | 4.85 h | 823 ng/mL | 2.82 h | 4170 ng·h/mL | 2 h | 4150 ng·h/mL | – | – | – | – | – | – | – | – | – | – | – | growth inhibition (GI) [4]: 78.6%; Activity [8]: Toxic |
| Cc1ccc(-n2nc(C(=O)N3C[C@H](C)N(C(=O)c4nc(-c5ccc6c(c5)N(C5CCC5)[C@H](C)C(=O)N6C)n(-c5ccc(C)cc5)n4)C[C@H]3C)nc2-c2ccc3c(c2)N(C2CCC2)[C@H](C)C(=O)N3C)cc1 | – | – | – | – | – | – | 34.7 h | 2.4 µL/min/mg | 9.48 h | 0.5 µL/min/mg | 0.05 nM | 0.7 µL/min/mg | 0.04 nM | Non-Toxic | 48.7 h | 61% | Toxic | – |
| Cc1ccc(-n2nc(C(=O)N3CCNCC3)nc2-c2ccc3c(c2)N(C2CCCC2)[C@H](C)C(=O)N3C)cc1 | – | – | – | – | – | – | – | – | – | – | 24.1 nM | – | 47.4 nM | – | – | – | – | IC50 [20]: 52.2 nM |
| Cc1sc2c(c1C)C(c1ccc(Cl)cc1)=NC(CC(=O)OC(C)(C)C)c1nnc(C)n1-2 (configuration not stated) | – | – | – | – | – | – | – | – | – | – | – | – | – | – | – | – | – | IC50 [21]: 72.2 nM |
| Cc1sc2c(c1C)C(c1ccc(Cl)cc1)=N[C@@H](CC(=O)NCCOCCOCCOCCOCCOCCOCCOCCNC(=O)C[C@@H]1N=C(c3ccc(Cl)cc3)c3c(sc(C)c3C)-n3c(C)nnc31)c1nnc(C)n1-2 | – | – | – | – | – | – | – | – | – | – | – | – | – | – | – | – | – | IC50 [21]: 0.17 nM |
| CCS(=O)(=O)Nc1ccc(Oc2ccc(F)cc2F)c(-c2cn(C)c(=O)c3[nH]ccc23)c1 [MIVEBRESIB] | – | – | – | – | – | – | – | – | – | – | – | – | – | Non-Toxic | – | 67.6% | Toxic | Activity [22]: Dose-Dependent Effect; Activity [23]: Active; Activity [24]: Active; Activity [25]: Dose-Dependent Effect; Activity [26]: Active; Activity [27]: Active; Activity [28]: Active; Activity [29]: Active; Activity [30]: Active; Activity [31]: Active; Activity [32]: Active; Activity [33]: Active; inhibition in vivo at 0.6 mg/kg [34]: 66.9% |
| Cc1ccc(-n2nc(C(=O)N3CCN(C(=O)c4nc(-c5ccc6c(c5)N(C5CCCC5)[C@H](C)C(=O)N6C)n(-c5ccc(C)cc5)n4)CC3)nc2-c2ccc3c(c2)N(C2CCCC2)[C@H](C)C(=O)N3C)cc1 | 1.69 h | 238 ng/mL | 0.82 h | 372 ng·h/mL | 1 h | 361 ng·h/mL | – | – | – | – | – | – | – | – | – | – | – | IC50 [20]: 6.2 nM |
| C[C@@H]1CN(C(=O)c2nc(-c3ccc4c(c3)N(C3CCC3)[C@H](C)C(=O)N4C)n(-c3cccc(Cl)c3)n2)[C@@H](C)CN1C(=O)c1nc(-c2ccc3c(c2)N(C2CCC2)[C@H](C)C(=O)N3C)n(-c2cccc(Cl)c2)n1 | – | – | – | – | – | – | 14.6 h | 6.2 µL/min/mg | 3.72 h | 6 µL/min/mg | 0.05 nM | 1.6 µL/min/mg | 0.07 nM | Non-Toxic | 3.86 h | 73.5% | Toxic | Activity [22]: Dose-Dependent Effect; Activity [23]: Active; Activity [24]: Active; Activity [25]: Dose-Dependent Effect; Activity [26]: Active; Activity [35]: Toxic; Activity [27]: Active; Activity [28]: Active; Activity [29]: Active; Activity [30]: Active; Activity [31]: Active; Activity [32]: Active; Activity [33]: Active; inhibition in vivo at 0.6 mg/kg [34]: 88.9% |
| Cc1ccc(-n2nc(C(=O)N3C[C@H](C)N(C(=O)c4nc(-c5ccc6c(c5)N(C5CCCC5)[C@H](C)C(=O)N6C)n(-c5ccc(C)cc5)n4)C[C@H]3C)nc2-c2ccc3c(c2)N(C2CCCC2)[C@H](C)C(=O)N3C)cc1 | 3.82 h | 1340 ng/mL | 0.19 h | 4620 ng·h/mL | 2.33 h | 4570 ng·h/mL | – | – | – | – | – | – | – | – | – | – | – | inhibition in vivo at 1.5 mg/kg [36]: 91.5%; Activity [37]: Toxic; inhibition in vivo at 0.5 mg/kg [38]: 66.5% |
| Cc1ccc(-n2nc(C(=O)N3C[C@H](C)N(C(=O)c4nc(-c5ccc6c(c5)N(C)[C@H](C)C(=O)N6C)n(-c5ccc(C)cc5)n4)C[C@H]3C)nc2-c2ccc3c(c2)N(C)[C@H](C)C(=O)N3C)cc1 | – | – | – | – | – | – | 3.02 h | 12.6 µL/min/mg | 1.84 h | 6.4 µL/min/mg | – | 7.6 µL/min/mg | – | – | 3.62 h | – | – | – |
